Test results reported in patent publication US11472791B2 (Incyte Corporation, priority 2019, dated 2022).

Molecular target: CDK2/Cyclin E1 (Homo sapiens (Human), UniProt P24941)
Assay: CDK2/Cyclin E1 HTRF enzyme activity assay
Type: biochemical
Settings: 1 mM ATP
Method: Assays are conducted in white 384-well polystyrene plates in a final reaction volume of 8 μL. […] HTRF signals are read after 1 hour at room temperature on a PHERAstar FS plate reader (BMG Labtech). Data is analyzed with IDBS XLFit and GraphPad Prism 5.0 software using a three or four parameter dose response curve to determine IC50 for each compound.

Row | Compound | IC50 [nM]
1 | [2H]C([2H])([2H])NCc1ccc(-n2cc(-c3nc(N[C@H]4CCN(S(=O)(=O)c5cn(C)cn5)C[C@H]4C)ncc3C#N)cn2)c(Cl)c1 [Example 148, 4-(1-(2-Chloro-4-(((methyl-d3)amino)methyl)phenyl)-1H-pyrazol-4-yl)-2-(((3R,4S)-3-methyl-1-((1-methyl-1H-imidazol-4-yl)sulfonyl)piperidin-4-yl)amino)pyrimidine-5-carbonitrile] | < 50
2 | [2H]C([2H])([2H])NCc1ccc(-n2cc(-c3nc(NC4CCN(S(=O)(=O)c5cnn(C)c5)CC4)ncc3C#N)cn2)c(C)n1 [Example 149, 2-((1-((1-Methyl-1H-pyrazol-4-yl)sulfonyl)piperidin-4-yl)amino)-4-(1-(2-methyl-6-(((methyl-d3)amino)methyl)pyridin-3-yl)-1H-pyrazol-4-yl)pyrimidine-5-carbonitrile] | < 50
3 | [2H]C([2H])([2H])NCc1ccc(-n2cc(-c3nc(N[C@H]4CCN(S(=O)(=O)c5cn(C)cn5)C[C@H]4C)ncc3C#N)cn2)c(C)n1 [Example 150, 2-(((3R,4S)-3-Methyl-1-((1-methyl-1H-imidazol-4-yl)sulfonyl)piperidin-4-yl)amino)-4-(1-(2-methyl-6-(((methyl-d3)amino)methyl)pyridin-3-yl)-1H-pyrazol-4-yl)pyrimidine-5-carbonitrile] | < 50
4 | Cc1nc(CNC(C)C)ccc1-n1cc(-c2nc(NC3CCN(S(=O)(=O)c4cn(C)cn4)CC3)ncc2C#N)cn1 [Example 151, 4-(1-(6-((Isopropylamino)methyl)-2-methylpyridin-3-yl)-1H-pyrazol-4-yl)-2-((1-((1-methyl-1H-imidazol-4-yl)sulfonyl)piperidin-4-yl)amino)pyrimidine-5-carbonitrile] | < 50
5 | Cc1nc(CNC(C)(C)C)ccc1-n1cc(-c2nc(NC3CCN(S(=O)(=O)c4cn(C)cn4)CC3)ncc2C#N)cn1 [Example 152, 4-(1-(6-((tert-Butylamino)methyl)-2-methylpyridin-3-yl)-1H-pyrazol-4-yl)-2-((1-((1-methyl-1H-imidazol-4-yl)sulfonyl)piperidin-4-yl)amino)pyrimidine-5-carbonitrile] | < 50
6 | Cc1nc(CNC(C)C)ccc1-n1cc(-c2nc(NC3CCN(S(=O)(=O)C4CC4)CC3)ncc2C#N)cn1 [Example 153, 2-((1-(Cyclopropylsulfonyl)piperidin-4-yl)amino)-4-(1-(6-((isopropylamino)methyl)-2-methylpyridin-3-yl)-1H-pyrazol-4-yl)pyrimidine-5-carbonitrile] | < 50
7 | N#Cc1cnc(N[C@H]2CCN(S(=O)(=O)C3CC3)C[C@H]2F)nc1-c1cnn(-c2ccc(CN[C@H]3C[C@@H](C#N)C3)cc2Cl)c1 [Example 154, 4-(1-(2-Chloro-4-((((1s,3s)-3-cyanocyclobutyl)amino)methyl)phenyl)-1H-pyrazol-4-yl)-2-(((3R,4S)-1-(cyclopropylsulfonyl)-3-fluoropiperidin-4-yl)amino)pyrimidine-5-carbonitrile] | < 50
8 | C[C@]1(NCc2ccc(-n3cc(-c4nc(N[C@H]5CCN(S(=O)(=O)C6CC6)C[C@H]5F)ncc4C#N)cn3)c(Cl)c2)C[C@H](O)C1 [Example 155, 4-(1-(2-chloro-4-((((1r,3r)-3-hydroxy-1-methylcyclobutyl)amino)methyl)phenyl)-1H-pyrazol-4-yl)-2-(((3R,4S)-1-(cyclopropylsulfonyl)-3-fluoropiperidin-4-yl)amino)pyrimidine-5-carbonitrile] | < 50
9 | N#Cc1cnc(N[C@H]2CCN(S(=O)(=O)C3CC3)C[C@H]2F)nc1-c1cnn(-c2ccc(CNCC3(O)CC3)cc2Cl)c1 [Example 156, 4-(1-(2-Chloro-4-((((1-hydroxycyclopropyl)methyl)amino)methyl)phenyl)-1H-pyrazol-4-yl)-2-(((3R,4S)-1-(cyclopropylsulfonyl)-3-fluoropiperidin-4-yl)amino)pyrimidine-5-carbonitrile] | < 50
10 | CC(C)(CO)NCc1ccc(-n2cc(-c3nc(NC4CCN(S(C)(=O)=O)CC4)ncc3C#N)cn2)c(Cl)c1 [Example 157, 4-(1-(2-Chloro-4-(((1-hydroxy-2-methylpropan-2-yl)amino)methyl)phenyl)-1H-pyrazol-4-yl)-2-((1-(methylsulfonyl)piperidin-4-yl)amino)pyrimidine-5-carbonitrile] | < 50
11 | CS(=O)(=O)N1CCC(Nc2ncc(C#N)c(-c3cnn(-c4ccc(CN[C@]5(C)C[C@H](O)C5)cc4Cl)c3)n2)CC1 [Example 158, 4-(1-(2-Chloro-4-((((1s,3s)-3-hydroxy-1-methylcyclobutyl)amino)methyl)phenyl)-1H-pyrazol-4-yl)-2-((1-(methylsulfonyl)piperidin-4-yl)amino)pyrimidine-5-carbonitrile] | < 50
12 | CS(=O)(=O)N1CCC(Nc2ncc(C#N)c(-c3cnn(-c4ccc(CNC5(CO)CC5)cc4Cl)c3)n2)CC1 [Example 159, 4-(1-(2-Chloro-4-(((1-(hydroxymethyl)cyclopropyl)amino)methyl)phenyl)-1H-pyrazol-4-yl)-2-((1-(methylsulfonyl)piperidin-4-yl)amino)pyrimidine-5-carbonitrile] | < 50
13 | CC(C)(NCc1ccc(-n2cc(-c3nc(NC4CCN(S(C)(=O)=O)CC4)ncc3C#N)cn2)c(Cl)c1)C(N)=O [Example 160, 2-((3-Chloro-4-(4-(5-cyano-2-((1-(methylsulfonyl)piperidin-4-yl)amino)pyrimidin-4-yl)-1H-pyrazol-1-yl)benzyl)amino)-2-methylpropanamide] | < 50
14 | CS(=O)(=O)N1CCC(Nc2ncc(C#N)c(-c3cnn(-c4ccc(CN[C@H]5C[C@H](O)C5)cc4Cl)c3)n2)CC1 [Example 161, 4-(1-(2-Chloro-4-((((1r,3r)-3-hydroxycyclobutyl)amino)methyl)phenyl)-1H-pyrazol-4-yl)-2-((1-(methylsulfonyl)piperidin-4-yl)amino)pyrimidine-5-carbonitrile] | < 50
15 | CS(=O)(=O)N1CCC(Nc2ncc(C#N)c(-c3cnn(-c4ccc(CN[C@H]5C[C@@H](O)C5)cc4Cl)c3)n2)CC1 [Example 162, 4-(1-(2-Chloro-4-((((1s,3s)-3-hydroxycyclobutyl)amino)methyl)phenyl)-1H-pyrazol-4-yl)-2-((1-(methylsulfonyl)piperidin-4-yl)amino)pyrimidine-5-carbonitrile] | < 50
16 | CO[C@H]1C[C@@H](NCc2ccc(-n3cc(-c4nc(NC5CCN(S(C)(=O)=O)CC5)ncc4C#N)cn3)c(Cl)c2)C1 [Example 163, 4-(1-(2-Chloro-4-((((1s,3s)-3-methoxycyclobutyl)amino)methyl)phenyl)-1H-pyrazol-4-yl)-2-((1-(methylsulfonyl)piperidin-4-yl)amino)pyrimidine-5-carbonitrile] | < 50
17 | CS(=O)(=O)N1CCC(Nc2ncc(C#N)c(-c3cnn(-c4ccc(CN[C@H]5C[C@@H](C#N)C5)cc4Cl)c3)n2)CC1 [Example 164, 4-(1-(2-Chloro-4-((((1s,3s)-3-cyanocyclobutyl)amino)methyl)phenyl)-1H-pyrazol-4-yl)-2-((1-(methylsulfonyl)piperidin-4-yl)amino)pyrimidine-5-carbonitrile] | < 50
18 | CCS(=O)(=O)N1CCC(Nc2ncc(C#N)c(-c3cnn(-c4ccc(CNc5cnn(C)c5)cc4Cl)c3)n2)CC1 [Example 165, 4-(1-(2-Chloro-4-(((1-methyl-1H-pyrazol-4-yl)amino)methyl)phenyl)-1H-pyrazol-4-yl)-2-((1-(ethylsulfonyl)piperidin-4-yl)amino)pyrimidine-5-carbonitrile] | < 50
19 | COC(=O)NC1CCCCC1NCc1ccc(-n2cc(-c3nc(NC4CCN(S(C)(=O)=O)CC4)ncc3C#N)cn2)c(Cl)c1 (stereo not drawn) [Example 166, Methyl (2-((3-chloro-4-(4-(5-cyano-2-((1-(methylsulfonyl)piperidin-4-yl)amino)pyrimidin-4-yl)-1H-pyrazol-1-yl)benzyl)amino)cyclohexyl)carbamate] | < 50
20 | COC(=O)N1CCC[C@H](NCc2ccc(-n3cc(-c4nc(NC5CCN(S(C)(=O)=O)CC5)ncc4C#N)cn3)c(Cl)c2)C1 [Example 167, Methyl (S)-3-((3-chloro-4-(4-(5-cyano-2-((1-(methylsulfonyl)piperidin-4-yl)amino)pyrimidin-4-yl)-1H-pyrazol-1-yl)benzyl)amino)piperidine-1-carboxylate] | < 50
21 | COC(=O)N1CCC[C@@H](NCc2ccc(-n3cc(-c4nc(NC5CCN(S(C)(=O)=O)CC5)ncc4C#N)cn3)c(Cl)c2)C1 [Example 168, Methyl (R)-3-((3-chloro-4-(4-(5-cyano-2-((1-(methylsulfonyl)piperidin-4-yl)amino)pyrimidin-4-yl)-1H-pyrazol-1-yl)benzyl)amino)piperidine-1-carboxylate] | < 50
22 | CC(=O)N1CC[C@H](NCc2ccc(-n3cc(-c4nc(NC5CCN(S(C)(=O)=O)CC5)ncc4C#N)cn3)c(Cl)c2)C1 [Example 169, (S)-4-(1-(4-(((1-Acetylpyrrolidin-3-yl)amino)methyl)-2-chlorophenyl)-1H-pyrazol-4-yl)-2-((1-(methylsulfonyl)piperidin-4-yl)amino)pyrimidine-5-carbonitrile] | < 50
23 | CC(=O)N1CC[C@@H](NCc2ccc(-n3cc(-c4nc(NC5CCN(S(C)(=O)=O)CC5)ncc4C#N)cn3)c(Cl)c2)C1 [Example 170, (R)-4-(1-(4-(((1-Acetylpyrrolidin-3-yl)amino)methyl)-2-chlorophenyl)-1H-pyrazol-4-yl)-2-((1-(methylsulfonyl)piperidin-4-yl)amino)pyrimidine-5-carbonitrile] | < 50
24 | CC(=O)N1CC(NCc2ccc(-n3cc(-c4nc(NC5CCN(S(C)(=O)=O)CC5)ncc4C#N)cn3)c(Cl)c2)C1 [Example 171, 4-(1-(4-(((1-Acetylazetidin-3-yl)amino)methyl)-2-chlorophenyl)-1H-pyrazol-4-yl)-2-((1-(methylsulfonyl)piperidin-4-yl)amino)pyrimidine-5-carbonitrile] | < 50
